The record followed here is patent US11135234B2, “Effective aminoglycoside antibiotic for multidrug-resistant bacteria” (MICROBIAL CHEMISTRY RESEARCH FOUNDATION, priority 2015, dated 2021).

The test system of test [1] is P. aeruginosa MSC01035. Put plainly: MIC, agar plate dilution method, P. aeruginosa MSC01035. The following applies: P. aeruginosa MSC01035, ABK-resistant. It is filed as cell-based, Pseudomonas aeruginosa. In outline:
(§1)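 Minimal inhibitory concentration (μg/mL) was determined by agar plate dilution following the Japan Society of Chemotherapy method.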

Test [2] relates to E. coli JM109/pMW218. Put plainly: MIC, agar plate dilution method, E. coli JM109/pMW218. It is filed as cell-based, Escherichia coli. Particulars: for minimal inhibitory concentration (MIC): E. coli JM109/pMW218, Sensitive bacterium. In short, it runs like this: as §1
The test system of test [3] is P. aeruginosa MSC17707. Put plainly: MIC, agar plate dilution method, P. aeruginosa MSC17707. It is filed as cell-based, Pseudomonas aeruginosa. Particulars: for minimal inhibitory concentration (MIC): P. aeruginosa MSC17707, AMK-resistant. In outline: as §1
Test [4] deals with A. baumannii ATCC BAA-1710. Put plainly: MIC, agar plate dilution method, A. baumannii ATCC BAA-1710. It is filed as cell-based, Acinetobacter baumannii. The following applies: for minimal inhibitory concentration (MIC): A. baumannii ATCC BAA-1710, MDRA. In short, it runs like this:
as §1

Test [5] relates to E. faecium ATCC19434. Put plainly: MIC, agar plate dilution method, E. faecium ATCC19434. It is filed as cell-based, Enterococcus faecium. The following applies: for minimal inhibitory concentration (MIC): E. faecium ATCC19434. In outline:
as §1

Test [6] relates to S. marcescens TH-0447. Put plainly: MIC, agar plate dilution method, S. marcescens TH-0447. It is filed as cell-based, Serratia marcescens. The following applies: for minimal inhibitory concentration (MIC): S. marcescens TH-0447, AMK-resistant. In short, it runs like this: as §1
The subject of test [7] is S. marcescens GN6944. Put plainly: MIC, agar plate dilution method, S. marcescens GN6944. It is filed as cell-based, Serratia marcescens. The following applies: S. marcescens GN6944, GM-resistant. In short, it runs like this:
as §1

Test [8] concerns P. aeruginosa PAO1. Put plainly: MIC, agar plate dilution method, P. aeruginosa PAO1. It is filed as cell-based, Pseudomonas aeruginosa. The following applies: for minimal inhibitory concentration (MIC): P. aeruginosa PAO1, Sensitive bacterium. In short, it runs like this:
as §1

The test system of test [9] is S. aureus RN4220/pMS520. Put plainly: MIC, agar plate dilution method, S. aureus RN4220/pMS520. It is filed as cell-based, Staphylococcus aureus. Particulars: for minimal inhibitory concentration (MIC): S. aureus RN4220/pMS520, MRSA. In short, it runs like this:
as §1

Test [10] relates to P. aeruginosa PAO1/GN315. Put plainly: MIC, agar plate dilution method, P. aeruginosa PAO1/GN315. The following applies: for minimal inhibitory concentration (MIC): P. aeruginosa PAO1/GN315, AMK-resistant. It is filed as cell-based, Pseudomonas aeruginosa. In short, it runs like this:
as §1

The subject of test [11] is K. pneumoniae ATCC BAA-1705. Put plainly: MIC, agar plate dilution method, K. pneumoniae ATCC BAA-1705. It is filed as cell-based, Klebsiella pneumoniae. The following applies: for minimal inhibitory concentration (MIC): K. pneumoniae ATCC BAA-1705, KPC-producing strain. In short, it runs like this: as §1
Test [12] relates to K. pneumoniae ATCC BAA-2146. Put plainly: MIC, agar plate dilution method, K. pneumoniae ATCC BAA-2146. Particulars: for minimal inhibitory concentration (MIC): K. pneumoniae ATCC BAA-2146, NDM-producing strain. It is filed as cell-based, Klebsiella pneumoniae. In outline:
as §1

Test [13] concerns S. aureus MF490. Put plainly: MIC, agar plate dilution method, S. aureus MF490. It is filed as cell-based, Staphylococcus aureus. Particulars: for minimal inhibitory concentration (MIC): S. aureus MF490, MRSA. In outline: as §1
Test [14] concerns S. aureus RN4220. Put plainly: MIC, agar plate dilution method, S. aureus RN4220. It is filed as cell-based, Staphylococcus aureus. Particulars: for minimal inhibitory concentration (MIC): S. aureus RN4220, Sensitive bacterium. In outline: as §1

In brackets after ≈: the same amount, converted by molar mass.

Take `CNC1C(O[C@H]2OC(C)[C@@H](N)[C@H](O)C2O)O[C@H]2CC(N)[C@@H](O[C@H]3CC(O)[C@H](N)CC3N)OC2C1O` (some centres unmarked) [Compound L5, 5,6″-dideoxyapramycin]: the MIC in test [1] (Pseudomonas aeruginosa, read-out: minimal inhibitory concentration (MIC)) worked out at 8 µg/mL (≈ 15.8 µM); in test [2] (Escherichia coli, JM109/PMW218, E. coli JM109/pMW218, Sensitive bacterium, read-out: minimal inhibitory concentration (MIC)), 1 µg/mL (≈ 1.97 µM); in test [3] (Pseudomonas aeruginosa, MSC17707, P. aeruginosa MSC17707, AMK-resistant, read-out: minimal inhibitory concentration (MIC)), 8 µg/mL (≈ 15.8 µM); in test [4] (Acinetobacter baumannii, ATCCBAA1710, A. baumannii ATCC BAA-1710, MDRA, read-out: minimal inhibitory concentration (MIC)) it was 8 µg/mL (≈ 15.8 µM); in test [5] (Enterococcus faecium, ATCC19434, E. faecium ATCC19434, read-out: minimal inhibitory concentration (MIC)), 8 µg/mL (≈ 15.8 µM); in test [6] (Serratia marcescens, TH0447, S. marcescens TH-0447, AMK-resistant, read-out: minimal inhibitory concentration (MIC)), 4 µg/mL (≈ 7.88 µM). The MIC in [7] (Serratia marcescens, read-out: minimal inhibitory concentration (MIC)) came to 4 µg/mL (≈ 7.88 µM); in [8] (Pseudomonas aeruginosa, PAO1, P. aeruginosa PAO1, Sensitive bacterium, read-out: minimal inhibitory concentration (MIC)), 4 µg/mL (≈ 7.88 µM); in test [9] (Staphylococcus aureus, MRSA, read-out: minimal inhibitory concentration (MIC), S. aureus RN4220/pMS520, MRSA) it was 1 µg/mL (≈ 1.97 µM); in test [10] (Pseudomonas aeruginosa, read-out: minimal inhibitory concentration (MIC), P. aeruginosa PAO1/GN315, AMK-resistant), 4 µg/mL (≈ 7.88 µM); in [11] (Klebsiella pneumoniae, ATCCBAA1705, K. pneumoniae ATCC BAA-1705, KPC-producing strain, read-out: minimal inhibitory concentration (MIC)), 1 µg/mL (≈ 1.97 µM); in [12] (Klebsiella pneumoniae, ATCCBAA2146, K. pneumoniae ATCC BAA-2146, NDM-producing strain, read-out: minimal inhibitory concentration (MIC)) it was 1 µg/mL (≈ 1.97 µM). In addition, the MIC in test [13] (Staphylococcus aureus, MRSA, read-out: minimal inhibitory concentration (MIC)) came to 4 µg/mL (≈ 7.88 µM); in test [14] (Staphylococcus aureus, RN4220, S. aureus RN4220, Sensitive bacterium, read-out: minimal inhibitory concentration (MIC)), 2 µg/mL (≈ 3.94 µM).
In the case of `CN[C@@H]1[C@@H](O[C@H]2O[C@H](CO)[C@@H](N)C[C@H]2O)O[C@H]2C[C@@H](N)[C@@H](O[C@H]3C[C@@H](O)[C@H](N)C[C@@H]3N)O[C@@H]2[C@@H]1O` [Compound M7, 5,3″-dideoxyapramycin], the “minimal inhibitory concentration (MIC)” value came to 4 µg/mL (≈ 7.88 µM) in test [1]; 0.5 µg/mL (≈ 0.985 µM) in [2]; 4 µg/mL (≈ 7.88 µM) in test [3]; 8 µg/mL (≈ 15.8 µM) in test [4]; 16 µg/mL (≈ 31.5 µM) in test [5]; 8 µg/mL (≈ 15.8 µM) in test [6]. Moreover, the “minimal inhibitory concentration (MIC)” value in test [7] amounted to 4 µg/mL (≈ 7.88 µM); in test [8], 4 µg/mL (≈ 7.88 µM); in [9] it was 1 µg/mL (≈ 1.97 µM); in test [10], 4 µg/mL (≈ 7.88 µM); in test [11], 1 µg/mL (≈ 1.97 µM); in test [12], 1 µg/mL (≈ 1.97 µM). Further, the “minimal inhibitory concentration (MIC)” value in test [13] came to 4 µg/mL (≈ 7.88 µM); in test [14], 2 µg/mL (≈ 3.94 µM).
With `CNC1C(OC2OC(CO)C(N)CC2O)OC2CC(N)C(OC3C(N)CC(N)C(O)C3O)OC2C1O` (centres unmarked) [Compound M9, 3″-deoxy-5-epiapramycin], the “minimal inhibitory concentration (MIC)” value in test [1] is 4 µg/mL (≈ 7.64 µM); in test [2], 1 µg/mL (≈ 1.91 µM); in [3], 4 µg/mL (≈ 7.64 µM); in test [4] it was 4 µg/mL (≈ 7.64 µM); in [5], 8 µg/mL (≈ 15.3 µM); in [6], 4 µg/mL (≈ 7.64 µM). Besides, the “minimal inhibitory concentration (MIC)” value worked out at 4 µg/mL (≈ 7.64 µM) in test [7]; 2 µg/mL (≈ 3.82 µM) in test [8]; 2 µg/mL (≈ 3.82 µM) in test [9]; 4 µg/mL (≈ 7.64 µM) in test [10]; 1 µg/mL (≈ 1.91 µM) in [11]; 1 µg/mL (≈ 1.91 µM) in test [12]. Moreover, the “minimal inhibitory concentration (MIC)” value in test [13] was found to be 4 µg/mL (≈ 7.64 µM); in test [14], 1 µg/mL (≈ 1.91 µM).
In the case of `CNC1C(OC2OC(CO)C(N)CC2O)OC2CC(N)C(OC3C(N)CC(N)C(O)C3F)OC2C1O` (stereo not drawn) [Compound M10, 5,3″-dideoxy-5-epi-5-fluoroapramycin], the “minimal inhibitory concentration (MIC)” value stood at 4 µg/mL (≈ 7.61 µM) in test [1]; 0.5 µg/mL (≈ 0.951 µM) in test [2]; 4 µg/mL (≈ 7.61 µM) in [3]; 8 µg/mL (≈ 15.2 µM) in test [4]; 8 µg/mL (≈ 15.2 µM) in test [5]; 8 µg/mL (≈ 15.2 µM) in test [6]. The “minimal inhibitory concentration (MIC)” value in test [7] came out at 4 µg/mL (≈ 7.61 µM); in test [8], 4 µg/mL (≈ 7.61 µM); in [9] it was 2 µg/mL (≈ 3.81 µM); in test [10] it was 4 µg/mL (≈ 7.61 µM); in test [11], 1 µg/mL (≈ 1.9 µM); in [12], 1 µg/mL (≈ 1.9 µM). Moreover, the “minimal inhibitory concentration (MIC)” value in [13] worked out at 8 µg/mL (≈ 15.2 µM); in test [14], 2 µg/mL (≈ 3.81 µM).
